According to patent publication US20240261307A1, “INHIBITORS OF SARS-COV-2 VIRAL REPLICATION AND USES THEREOF” (ARIZONA BOARD OF REGENTS ON BEHALF OF THE UNIVERSITY OF …, priority 2021, published 2024):
pEC50: −log10 of the molar value. Entries after “also recorded” stand apart in the source; their conditions may differ. Non-standard residues stand in square brackets, D forms with d. Residues, ends and D or L forms follow the SMILES beside them. No end group written: not given here. Hyp = O=C(O)[C@@H]1C[C@@H](O)CN1; aThr = C[C@H](O)[C@H](N)C(=O)O

What was measured:
SARS-CoV-2 [1] = assay: Viral reduction plaque assay in Vero cells; type: cell-based; set-up: key to Inhibition of Infection: ++: Validated strong inhibitor; +/−: Validated modest inhibitor; −: Validated no effect; conditions: for number of infected cells compared to positive control: Vero cells, increasing concentrations, 4 days; for Inhibition of Infection: in-vitro experiments, SARS-CoV2
SARS-CoV-2 [2] = assay: Cytopathic effect (CPE) assay in Vero cells with P-gp inhibitor CP-100356; type: cell-based; conditions: for pEC50: Severe acute respiratory syndrome coronavirus 2, read-out: EC50 of inhibition of virus-induced CPE
SARS-CoV-2 [3] = type: cell-based
West Nile virus (WNV) = assay: WNV replication in Vero cells by viral foci assay; type: cell-based; conditions: 100 μM
Text: To exclude such possibilities, we tested the ability of any of the 4 active compounds plus one negative control compound to suppress the replication of West Nile virus (WNV), an RNA virus of the unrelated flavivirus family. […] Together, our experiments confirmed compounds ZINC000008077555, ZINC000230464020, ZINC000006623878, and ZINC000085876900 as specific inhibitors of SARS-CoV-2 replication but not interfering with the host cell.
The number of infectious SARS-CoV-2 virions was quantified by viral plaque assay. To this end, Vero cells were incubated with SARS-CoV-2 for 2 hrs and subsequently overlaid with 1% methylcellulose in culture medium. After 3-4 days, the cells were fixed in 10% formalin for 30 min, washed under tap water, and stained with crystal violet. The number of plaques corresponding to infections of individual cells by single virions was counted on a light table. The quantification of infectious WNV virions was performed similarly with the exception that the number of infected cell foci was determined by intracellular staining using a biotinylated anti-WNV-E antibody (clone E16), followed by an HRP-labeled anti-streptavidin antibody. HRP activity was detected with KPL Trueblue substrate (SeraCare).
Viral replication of SARS-CoV-2 in the presence of Mpro inhibitors was measured in Vero or Calu-3 cells in three ways. […] The virus-induced cytopathic effect was measured by determining the fraction of formalin-fixed adherent cells that remained after 3 days (Vero cells) or 4 days (Calu-3 cells). To this end, the cells were stained with crystal violet, PBS-washed, and air-dried. Following resuspension in methanol, crystal violet staining was measured in the spectrophometer at OD594. Cytotoxicity of the compounds was measured in parallel by the staining of uninfected cells incubated with the […]. In a second approach, drug activity was determined in Vero cells directly by viral plaque assay, using between 100-500 Pfu/well of virus and indicated concentrations of Mpro inhibitors. In a third approach, Vero cells were infected with SARS-CoV-2 or WNV at an MOI of 0.01 in the presence of […] of Mpro inhibitors for 2-3 days. Viral replication was measured indirectly at indicated time points by quantifying the titers of infectious virions in the supernatants with viral plaque or foci assays in the absence of the compounds. Viral replication in Calu-3 cells in the presence of indicated concentrations of compounds was determined similarly.

[4] = tested on: type I IFNs, ISGs, proinflammatory cytokines; type: cell-based, human; conditions: for type I IFNs, proinflammatory cytokines and ISGs in infected cells: cell line not given
Vero cells = conditions: 100 μM, with 2 μM CP-100356
Method: Vehicle-treated cells served as controls. The amounts of infectious virions in the cell supernatants were determined 2 days later by viral plaque assay.

Compound | number of infected cells compared to positive control (SARS-CoV-2 [1]) | pEC50 (SARS-CoV-2 [2]) | SARS-CoV-2 replication (viral titers in culture medium) (SARS-CoV-2 [3]) | suppression of SARS-CoV-2 replication, post-treatment (SARS-CoV-2 [3]) | suppression of SARS-CoV-2 replication, pre-treatment (SARS-CoV-2 [3]) | suppression of viral replication (SARS-CoV-2 [3]) | replication of WNV (West Nile virus (WNV)) | replication of WNV (West Nile virus (WNV); listed as ZINC0002304644020) | expression of type I IFNs, ISGs and proinflammatory cytokines vs cells infected without compound [4] | type I IFNs, proinflammatory cytokines and ISGs in infected cells [4] | Inhibition of Infection (SARS-CoV-2 [1]) | activity against virus-induced CPE (SARS-CoV-2 [2]) | toxicity (Vero cells) | replication of WNV (West Nile virus (WNV); listed as ZINC00000807555)
COc1cc([C@H](CC(=O)NCCc2ccc(O)c(O)c2)c2c(O)nc3ccccn3c2=O)cc2c1OCCO2 [ZINC000230464020, (3S)-N-[2-(3,4-dihydroxyphenyl)ethyl]-3-(2-hydroxy-4-oxopyrido[1,2-a]pyrimidin-3-yl)-3-(5-methoxy-2,3-dihydro-1,4-benzodioxin-7-yl)propanamide] | significant drop | 4.65 to 5.34 | suppress SARS-CoV-2 replication | significant suppression | significant suppression | approximately 10 fold | did not significantly restrict replication of WNV | do not impact WNV replication | significantly higher expression | enhance |  |  |  | 
C[C@H](NC(=O)[C@H](N)Cc1ccc(O)cc1)C(=O)N[C@H](Cc1ccccc1)C(=O)N1C[C@H](O)C[C@H]1C(=O)N[C@@H](Cc1ccc(O)cc1)C(N)=O [ZINC000644163977, (2S,4R)-N-[(2S)-1-amino-3-(4-hydroxyphenyl)-1-oxopropan-2-yl]-1-[(2R)-2-[[(2S)-2-[[(2R)-2-amino-3-(4-hydroxyphenyl)propanoyl]amino]propanoyl]amino]-3-phenylpropanoyl]-4-hydroxypyrrolidine-2-carboxamide] (H-[dY]A[dF][Hyp]Y-NH2) | modest |  | did not |  |  |  |  |  |  |  | +/− | negligible activity |  | 
COc1ccc(CNC(=O)Cc2c(C)c3ccc(O)c(O)c3oc2=O)c(OC)c1 [ZINC000006623878, 2-(7,8-dihydroxy-4-methyl-2-oxochromen-3-yl)-N-[(2,4-dimethoxyphenyl)methyl]acetamide] | significant drop | 4.65 to 5.34 | suppress SARS-CoV-2 replication | significant suppression | significant suppression | approximately 10 fold | did not significantly restrict replication of WNV; also recorded: do not impact WNV replication |  |  | enhance | ++ |  |  | 
RYLGYL [ZINC000097972782, (2S)-2-[[(2S)-2-[[2-[[(2S)-2-[[(2S)-2-[[(2S)-2-amino-5-(diaminomethylideneamino)pentanoyl]amino]-3-(4-hydroxyphenyl)propanoyl]amino]-4-methylpentanoyl]amino]acetyl]amino]-3-(4-hydroxyphenyl)propanoyl]amino]-4-methylpentanoic acid] |  |  |  |  |  |  |  |  |  |  | − |  |  | 
C[C@H](O)[C@H](N)C(=O)N[C@@H](Cc1ccc(O)cc1)C(=O)N[C@@H](CCCCN)C(=O)O [ZINC000005462364, (2S)-6-amino-2-[[(2S)-2-[[(2S,3S)-2-amino-3-hydroxybutanoyl]amino]-3-(4-hydroxyphenyl)propanoyl]amino]hexanoic acid] (H-[aThr]-Tyr-Lys-OH) |  |  |  |  |  |  |  |  |  |  | − |  |  | 
COc1ccc(-c2coc3c4c(cc(O)c3c2=O)OC(=O)C[C@@H]4c2ccc(OCC(N)=O)cc2)cc1 [ZINC000085876900, 2-[4-[(10R)-5-hydroxy-3-(4-methoxyphenyl)-4,8-dioxo-9,10-dihydropyrano[2,3-h]chromen-10-yl]phenoxy]acetamide] | significant drop | 4.65 to 5.34 | suppress SARS-CoV-2 replication | significant suppression | significant suppression | approximately 10 fold | did not significantly restrict replication of WNV; also recorded: do not impact WNV replication |  | significantly higher expression | enhance |  |  | toxic | 
Nc1ncnc2c1ncn2[C@@H]1O[C@H](COP(=O)(O)OP(=O)(O)OP(=O)(O)OC[C@@H]2O[C@H](n3cnc4c(N)ncnc43)[C@H](O)[C@@H]2O)[C@H](O)[C@@H]1O [ZINC000085591448, [[(2S,3S,4R,5S)-5-(6-aminopurin-9-yl)-3,4-dihydroxyoxolan-2-yl]methoxy-hydroxyphosphoryl] [[(2R,3R,4S,5R)-5-(6-aminopurin-9-yl)-3,4-dihydroxyoxolan-2-yl]methoxy-hydroxyphosphoryl] hydrogen phosphate] |  |  |  |  |  |  |  |  |  |  | − |  |  | 
NC(=O)CC[C@H](NC(=O)OCc1ccccc1)C(=O)NCCc1ccc(F)cc1 [ZINC000008077555, benzyl N-[(2S)-5-amino-1-[2-(4-fluorophenyl)ethylamino]-1,5-dioxopentan-2-yl]carbamate] | significant drop | 4.65 to 5.34 | suppress SARS-CoV-2 replication |  |  | approximately 10 fold | did not significantly restrict replication of WNV |  |  | enhance | +/− |  |  | do not impact WNV replication
CC(C)n1[nH]c(=O)c2c(-c3ccc(O)c(O)c3)c3oc4c(O)c(=O)ccc4c3[nH]c21 [ZINC000085879857, 10-(3,4-dihydroxyphenyl)-6-hydroxy-14-propan-2-yl-8-oxa-13,14,16-triazatetracyclo[7.7.0.02,7.011,15]hexadeca-1,3,6,9,11(15)-pentaene-5,12-dione] |  |  |  |  |  |  |  |  |  |  | − |  |  | 
